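These data come from cells grown in 96-well plates and exposed to compound for 48 hours at five concentrations. GI50 marks 50% less growth. The concentration for full growth arrest is given as TGI.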
Key:
Test in all cases: NCI tumour cell line growth inhibition, 48 h
[1] = tested on: NCI-H23 lung
[2] = tested on: NCI-H460 lung
[3] = tested on: NCI-H522 lung
[4] = tested on: NCI/ADR-RES ovarian
[5] = tested on: OVCAR-3 ovarian
[6] = tested on: OVCAR-4 ovarian
[7] = tested on: OVCAR-5 ovarian
[8] = tested on: OVCAR-8 ovarian
[9] = tested on: PC-3 prostate
[10] = tested on: RPMI-8226 leukemia
[11] = tested on: RXF 393 renal
[12] = tested on: SF-268 CNS
[13] = tested on: SF-295 CNS
[14] = tested on: SF-539 CNS
[15] = tested on: SK-MEL-2 melanoma
[16] = tested on: SK-MEL-28 melanoma
[17] = tested on: SK-MEL-5 melanoma
[18] = tested on: SK-OV-3 ovarian
[19] = tested on: SN12C renal
[20] = tested on: SNB-19 CNS
[21] = tested on: SNB-75 CNS
[22] = tested on: SR leukemia
[23] = tested on: SW-620 colon
[24] = tested on: T-47D breast
[25] = tested on: TK-10 renal
[26] = tested on: U251 CNS
[27] = tested on: UACC-257 melanoma
[28] = tested on: UACC-62 melanoma
[29] = tested on: UO-31 renal

SMILES: Cc1cccc(Cl)c1NC(=O)c1cnc(Nc2cc(N3CCOCC3)cc(S(C)(=O)=O)c2)s1
- GI50 [1]: > 10 µM
- TGI [1]: > 10 µM
- GI50 [2]: > 9.52 µM
- TGI [2]: > 10 µM
- GI50 [3]: 0.264 µM
- TGI [3]: > 10 µM
- GI50 [4]: 9.94 µM
- TGI [4]: > 10 µM
- GI50 [5]: 0.476 µM
- TGI [5]: > 10 µM
- GI50 [6]: > 10 µM
- TGI [6]: > 10 µM
- GI50 [7]: 0.257 µM
- TGI [7]: > 10 µM
- GI50 [8]: 0.516 µM
- TGI [8]: > 10 µM
- GI50 [9]: 1.46 µM
- TGI [9]: > 10 µM
- GI50 [10]: > 10 µM
- TGI [10]: > 10 µM
- GI50 [11]: 0.103 µM
- TGI [11]: 0.994 µM
- GI50 [12]: 0.354 µM
- TGI [12]: > 10 µM
- GI50 [13]: > 4.23 µM
- TGI [13]: > 10 µM
- GI50 [14]: 0.306 µM
- TGI [14]: > 10 µM
- GI50 [15]: > 10 µM
- TGI [15]: > 10 µM
- GI50 [16]: > 5.14 µM
- TGI [16]: > 10 µM
- GI50 [17]: > 8.89 µM
- TGI [17]: > 10 µM
- GI50 [18]: 0.191 µM
- TGI [18]: > 8.3 µM
- GI50 [19]: 0.455 µM
- TGI [19]: > 10 µM
- GI50 [20]: > 4.95 µM
- TGI [20]: > 10 µM
- GI50 [21]: 0.0202 µM
- TGI [21]: 0.196 µM
- GI50 [22]: > 10 µM
- TGI [22]: > 10 µM
- GI50 [23]: > 10 µM
- TGI [23]: > 10 µM
- GI50 [24]: 0.292 µM
- TGI [24]: > 10 µM
- GI50 [25]: 0.132 µM
- TGI [25]: 1.15 µM
- GI50 [26]: > 5.57 µM
- TGI [26]: > 10 µM
- GI50 [27]: > 4.82 µM
- TGI [27]: > 10 µM
- GI50 [28]: 0.922 µM
- TGI [28]: > 10 µM
- GI50 [29]: 0.199 µM
- TGI [29]: > 6.98 µM

Reference: PubChem BioAssay (NCI)
